# In patent publication US10760110B2, “Antibiotic testing and screening system” (priority 2017, dated 2020):
# Read-outs that look alike come from different tables or passages of the source.
# What was measured:
# [1] = test system: K. pneumoniae NVT1001 gyrA/parC and gyrA/parC/ramR mutants and revertants; assay: Etest MIC of quinolones, gyrA/parC and gyrA/parC/ramR mutants and their revertants (Table 11); assay type: cell-based; conditions: Klebsiella pneumoniae
# Source text: The allelic-exchange method was used to restore the wild-type gene in the K. pneumoniae NVT1001 mutants with constructed chromosome-mediated resistance mechanisms, as described by Tsai et al.^19 Briefly, a DNA fragment of the entire wild-type gene sequence along with flanking regions was amplified from K. pneumoniae NVT1001 using PCR with specific primers. The resulting PCR fragment was digested and then cloned into pUT-KB. For homologous recombination, this plasmid was transformed into E. coli S17-1 λpir^23 via electroporation and mobilized into the K. pneumoniae NVT1001 mutant via conjugation. […] After incubation in 20 mL BHI broth for 6 hours at 37° C. in the absence of kanamycin, the fully grown cultures were spread onto LB agar plates supplemented with 10% sucrose. After the double crossover occurred, the sucrose-resistant and kanamycin-susceptible colonies were selected, and the restoration of the wild-type gene was confirmed via DNA sequencing.
# (§1) The MICs of antibiotics were determined using the Etest (Biodisk AB, Sweden) according to the manufacturer's instructions. The MICs from the Etest, which fall between standard two-fold dilutions, were rounded up to the next highest two-fold value. The MICs of ceftazidime and cefotaxime against K. pneumoniae NVT1001 harbouring the pACYC177 plasmid with blaOXA-48 were further determined using a broth microdilution test according to the recommendations of the CLSI,^25 and the results were interpreted according to the breakpoints established by the CLSI in 2017.^25 Meanwhile, due to the lack of CLSI breakpoints in 2016 and 2017, the results for cephalothin were interpreted according to the breakpoints established by the CLSI in 2015,^26 and the results for moxifloxacin were interpreted according to the breakpoints established by the EUCAST in 2017.^27
# [2] = test system: K. pneumoniae NVT1001 strains with QnrB, QnrS or AAC(6′)-Ib-cr plasmids; assay: Etest MIC of quinolones, GyrA/ParC mutations, ΔramR and/or QnrB, QnrS or AAC(6′)-Ib-cr (Table 12); assay type: cell-based; conditions: Klebsiella pneumoniae
# Description: DNA fragments of the resistance genes along with their flanking regions were amplified from clinical plasmids via PCR with specific primer pairs. The resulting PCR fragments were digested and then cloned into the plasmid pACYC177 or pACYC184. The resulting plasmids were then transformed into K. pneumoniae strain NVT1001 via electroporation. The recombinant bacteria were plated onto LB agar plates containing kanamycin (50 mg/L) or chloramphenicol (50 mg/L), and the presence of the cloned gene was confirmed via PCR and DNA sequencing.
# as §1
structure (smiles),measurement,setting,value
"CCn1cc(C(=O)O)c(=O)c2ccc(C)nc21 [Nalidixic acid, nalidixic acid]",MIC,[1]; S83F/D87N/S80I mutant,> 256 µg/mL
same,MIC,"[1]; S83F/D87N/S80I::F83S/N87D/I80S revertant, read-out: MIC",4 µg/mL
same,MIC,"[1]; S83F/D87N/S80I::I80S revertant, read-out: MIC",> 256 µg/mL
same,MIC,"[1]; S83F/D87N/S80I::N87D revertant, read-out: MIC",> 256 µg/mL
same,MIC,"[1]; S83F/D87N/S80I::N87D/I80S revertant, read-out: MIC",> 256 µg/mL
same,MIC,[1]; S83I/D87N/S80I mutant,> 256 µg/mL
same,MIC,"[1]; S83I/D87N/S80I::I80S revertant, read-out: MIC",> 256 µg/mL
same,MIC,"[1]; S83I/D87N/S80I::I83S/N87D/I80S revertant, read-out: MIC",4 µg/mL
same,MIC,"[1]; S83I/D87N/S80I::N87D revertant, read-out: MIC",> 256 µg/mL
same,MIC,"[1]; S83I/D87N/S80I::N87D/I80S revertant, read-out: MIC",> 256 µg/mL
same,MIC,[1]; S83L/D87N/S80I mutant,> 256 µg/mL
same,MIC,"[1]; S83L/D87N/S80I::I80S revertant, read-out: MIC",> 256 µg/mL
same,MIC,"[1]; S83L/D87N/S80I::L83S/N87D/I80S revertant, read-out: MIC",4 µg/mL
same,MIC,"[1]; S83L/D87N/S80I::N87D revertant, read-out: MIC",> 256 µg/mL
same,MIC,"[1]; S83L/D87N/S80I::N87D/I80S revertant, read-out: MIC",> 256 µg/mL
same,MIC,[1]; S83Y/D87N/S80I mutant,> 256 µg/mL
same,MIC,"[1]; S83Y/D87N/S80I::I80S revertant, read-out: MIC",> 256 µg/mL
same,MIC,"[1]; S83Y/D87N/S80I::N87D revertant, read-out: MIC",> 256 µg/mL
same,MIC,"[1]; S83Y/D87N/S80I::N87D/I80S revertant, read-out: MIC",> 256 µg/mL
same,MIC,"[1]; S83Y/D87N/S80I::Y83S/N87D/I80S revertant, read-out: MIC",8 µg/mL
same,MIC,[1]; ΔramR/S83I/D87N/S80I mutant,> 256 µg/mL
same,MIC,[1]; ΔramR/S83I/D87N/S80I:: ramR/I83S revertant,> 256 µg/mL
same,MIC,[1]; ΔramR/S83I/D87N/S80I:: ramR/I83S/I80S revertant,> 256 µg/mL
same,MIC,[1]; ΔramR/S83I/D87N/S80I:: ramR/I83S/N87D revertant,8 µg/mL
same,MIC,[1]; ΔramR/S83I/D87N/S80I::I83S/N87D/I80S revertant,32 µg/mL
same,MIC,[1]; ΔramR/S83I/D87N/S80I::N87D revertant,> 256 µg/mL
same,MIC,[1]; ΔramR/S83I/D87N/S80I::N87D/I80S revertant,> 256 µg/mL
same,MIC,[1]; ΔramR/S83I/D87N/S80I::ramR/I83S/N87D/I80S,8 µg/mL
same,MIC,"[2]; AAC(6′)-Ib-cr on pACYC177, S83I mutant",> 256 µg/mL
same,MIC,"[2]; AAC(6′)-Ib-cr on pACYC177, S83I/D87N/S80I mutant",> 256 µg/mL
same,MIC,"[2]; AAC(6′)-Ib-cr on pACYC177, S83I/S80I mutant",> 256 µg/mL
same,MIC,"[2]; AAC(6′)-Ib-cr on pACYC177, WT (NVT1001), read-out: MIC",4 µg/mL
same,MIC,"[2]; AAC(6′)-Ib-cr on pACYC177, ΔramR mutant",64 µg/mL
same,MIC,"[2]; AAC(6′)-Ib-cr on pACYC177, ΔramR/S83I mutant",> 256 µg/mL
same,MIC,"[2]; AAC(6′)-Ib-cr on pACYC177, ΔramR/S83I/D87N/S80I mutant",> 256 µg/mL
same,MIC,"[2]; AAC(6′)-Ib-cr on pACYC177, ΔramR/S83I/S80I mutant",> 256 µg/mL
same,MIC,"[2]; QnrB on pACYC177, S83I mutant",> 256 µg/mL
same,MIC,"[2]; QnrB on pACYC177, S83I/D87N/S80I mutant",> 256 µg/mL
same,MIC,"[2]; QnrB on pACYC177, S83I/S80I mutant",> 256 µg/mL
same,MIC,"[2]; QnrB on pACYC177, WT (NVT1001), read-out: MIC",32 µg/mL
same,MIC,"[2]; QnrB on pACYC177, ΔramR mutant",256 µg/mL
same,MIC,"[2]; QnrB on pACYC177, ΔramR/S83I mutant",> 256 µg/mL
same,MIC,"[2]; QnrB on pACYC177, ΔramR/S83I/D87N/S80I mutant",> 256 µg/mL
same,MIC,"[2]; QnrB on pACYC177, ΔramR/S83I/S80I mutant",> 256 µg/mL
same,MIC,"[2]; QnrS on pACYC177, S83I mutant",> 256 µg/mL
same,MIC,"[2]; QnrS on pACYC177, S83I/D87N/S80I mutant",> 256 µg/mL
same,MIC,"[2]; QnrS on pACYC177, S83I/S80I mutant",> 256 µg/mL
same,MIC,"[2]; QnrS on pACYC177, WT (NVT1001), read-out: MIC",16 µg/mL
same,MIC,"[2]; QnrS on pACYC177, ΔramR mutant",64 µg/mL
same,MIC,"[2]; QnrS on pACYC177, ΔramR/S83I mutant",> 256 µg/mL
same,MIC,"[2]; QnrS on pACYC177, ΔramR/S83I/D87N/S80I mutant",> 256 µg/mL
same,MIC,"[2]; QnrS on pACYC177, ΔramR/S83I/S80I mutant",> 256 µg/mL
same,MIC,"[2]; no supplemental plasmid, S83I mutant",> 256 µg/mL
same,MIC,"[2]; no supplemental plasmid, S83I/D87N/S80I mutant",> 256 µg/mL
same,MIC,"[2]; no supplemental plasmid, S83I/S80I mutant",> 256 µg/mL
same,MIC,"[2]; no supplemental plasmid, WT (NVT1001), read-out: MIC",4 µg/mL
same,MIC,"[2]; no supplemental plasmid, ΔramR mutant",32 µg/mL
same,MIC,"[2]; no supplemental plasmid, ΔramR/S83I mutant",> 256 µg/mL
same,MIC,"[2]; no supplemental plasmid, ΔramR/S83I/D87N/S80I mutant",> 256 µg/mL
same,MIC,"[2]; no supplemental plasmid, ΔramR/S83I/S80I mutant",> 256 µg/mL
